Source: paper PMC10458471, “Electrophysiological Assessment of Newly Synthesized 2,3-Benzodiazepine Derivatives for Inhibiting the AMPA Receptor Channel” (Molecules, 2023)
Read-outs that look alike come from different tables or passages of the source.

Assays:
Type in all cases: cell-based
GluA1/2 = molecular target: T1, GluA1/2 (Rattus norvegicus, UniProt P19490+P19491); experiment: Whole-cell patch-clamp recording of heteromeric GluA1/2 AMPAR expressed in HEK293T cells; conditions: for Amplitude with compound: 10 mM glutamate + 16 µM compound, mean±SEM; for Amplitude with compound / A/AI (current amplitude ratio without/with compound) / t deact (weighted deactivation time constant) / t des (weighted desensitization time constant) / Amplitude, applying glutamate alone after compound: n=8; for A/AI (current amplitude ratio without/with compound): 10 mM glutamate, 16 µM compound; for t deact (weighted deactivation time constant): 1 ms 10 mM glutamate + 16 µM compound; for t des (weighted desensitization time constant): 500 ms 10 mM glutamate + 16 µM compound; for Amplitude, applying glutamate alone after compound: washout/recovery
T1 construct: expressed in transfected cells; host or cells: HEK293T
T1 sequence (P19490 19-907 isoform P19490-2 limits assumed): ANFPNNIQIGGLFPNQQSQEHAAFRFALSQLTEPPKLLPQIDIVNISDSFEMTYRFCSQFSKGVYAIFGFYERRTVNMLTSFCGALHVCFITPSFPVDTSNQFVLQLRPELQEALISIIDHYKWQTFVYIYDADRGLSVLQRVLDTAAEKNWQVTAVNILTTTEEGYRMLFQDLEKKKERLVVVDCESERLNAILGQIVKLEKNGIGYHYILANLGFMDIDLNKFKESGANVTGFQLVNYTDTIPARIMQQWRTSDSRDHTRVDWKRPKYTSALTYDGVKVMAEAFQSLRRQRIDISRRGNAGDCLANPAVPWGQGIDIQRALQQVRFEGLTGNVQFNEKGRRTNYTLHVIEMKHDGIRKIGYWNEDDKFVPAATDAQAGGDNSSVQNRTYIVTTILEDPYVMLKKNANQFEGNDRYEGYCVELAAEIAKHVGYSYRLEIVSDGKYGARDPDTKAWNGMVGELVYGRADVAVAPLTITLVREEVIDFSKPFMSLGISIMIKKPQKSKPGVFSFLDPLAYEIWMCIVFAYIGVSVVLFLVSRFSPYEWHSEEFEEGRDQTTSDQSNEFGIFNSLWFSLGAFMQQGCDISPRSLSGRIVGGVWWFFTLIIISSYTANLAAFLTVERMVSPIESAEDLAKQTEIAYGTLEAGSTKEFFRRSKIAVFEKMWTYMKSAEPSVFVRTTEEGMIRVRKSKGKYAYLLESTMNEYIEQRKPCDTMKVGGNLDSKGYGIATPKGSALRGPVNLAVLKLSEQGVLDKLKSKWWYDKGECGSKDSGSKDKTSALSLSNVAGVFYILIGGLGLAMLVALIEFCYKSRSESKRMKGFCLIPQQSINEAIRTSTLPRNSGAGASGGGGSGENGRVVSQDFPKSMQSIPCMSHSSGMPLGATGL
T1 sequence (P19491 22-883 isoform P19491-2 limits assumed): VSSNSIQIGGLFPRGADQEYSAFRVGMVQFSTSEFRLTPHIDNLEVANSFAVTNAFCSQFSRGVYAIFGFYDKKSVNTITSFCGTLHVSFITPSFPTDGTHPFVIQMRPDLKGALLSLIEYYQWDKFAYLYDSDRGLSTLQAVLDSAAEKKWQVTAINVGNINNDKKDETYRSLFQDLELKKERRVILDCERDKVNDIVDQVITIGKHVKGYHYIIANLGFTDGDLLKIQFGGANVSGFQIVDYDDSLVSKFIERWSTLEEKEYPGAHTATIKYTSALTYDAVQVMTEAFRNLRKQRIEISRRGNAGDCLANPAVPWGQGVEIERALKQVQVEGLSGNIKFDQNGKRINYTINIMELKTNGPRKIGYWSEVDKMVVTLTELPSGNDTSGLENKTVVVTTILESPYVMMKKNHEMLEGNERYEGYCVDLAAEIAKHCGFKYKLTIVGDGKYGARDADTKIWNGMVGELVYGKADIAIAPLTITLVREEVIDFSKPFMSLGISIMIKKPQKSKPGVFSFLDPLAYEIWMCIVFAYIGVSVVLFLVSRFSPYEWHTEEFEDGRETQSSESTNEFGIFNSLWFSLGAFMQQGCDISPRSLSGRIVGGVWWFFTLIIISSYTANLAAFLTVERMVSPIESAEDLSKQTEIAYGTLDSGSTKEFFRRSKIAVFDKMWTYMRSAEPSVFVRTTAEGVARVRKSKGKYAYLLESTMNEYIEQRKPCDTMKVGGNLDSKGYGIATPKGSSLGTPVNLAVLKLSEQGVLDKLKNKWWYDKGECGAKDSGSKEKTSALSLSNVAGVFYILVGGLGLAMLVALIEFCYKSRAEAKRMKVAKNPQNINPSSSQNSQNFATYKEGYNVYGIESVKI
Procedure: (§1) For the DNA preparation, the QIAGEN Plasmid Mini Kit was used to prepare up to 20 µg of high-copy plasmid DNA [30]. All AMPAR subunits utilized in this study included the flip isoform received from S. F. Heinemann (Salk Institute, La Jolla, CA, USA) and sub-cloned in pRK for expression in Human Embryonic Kidney Cells 293 (HEK293T). The human embryonic kidney (HEK293T) cells were obtained from Sigma, Taufkirchen, Germany, and we only used the HEK293T cell line due to their ease of growth and transfection and wide utilization in cell culture. For the transfection, we used the constructs GluA1, GluA2, GluA2/3, and GluA1/2, along with the GFP-expressing construct, as described in our previous work. The transfection reagents utilized were jetPRIME (Polyplus: New York, NY, USA) or Lipofectamine 2000 (Invitrogen; San Diego, CA, USA). The highly fluorescent cells were identified and selected for recording. The selected cells were seeded in Dulbecco Modified Eagle Medium (DMEM) (Sigma, Roedermark, Germany) containing 10% FBS, 0.1 mg/mL streptomycin, and 1 mM sodium pyruvate (Biological Industries; Beit-Haemek, Israel). The cells were incubated at 37 °C with 5% CO2 added to the medium and subcultured twice a week until they reached passage #20. Following a day and a half, the cells were replated on coverslips covered with Laminin (1 mg/mL; Sigma, Roedermark, Germany) for electrophysiological recordings. Our previous work has detailed the DNA preparation, cDNA transient transfection, and cell culture of HEK293T [30, 31, 32, 33].
(§2) After that, a patch was placed in front of a rapid perfusion system comprised of a theta tube flow pipe mounted on a piezoelectric translator that was used to wash the cell continuously from one barrel while the other supplied the compound of interest to the cell. Recordings were conducted 36–48 h after transfection at 22 °C, with a membrane potential of −60 mV. Currents were amplified using an integrated patch amplifier (IPA, Sutter Instruments, Novato, CA, USA), filtered at 2 kHz, and digitized at 10 kHz using SutterPatch Software v. 1.1.1 [46]. […] The extracellular medium contained (in mM): 150 NaCl, 2.8 KCl, 0.5 MgCl2, 2 CaCl2, and 10 HEPES, pH 7.4 adjusted with NaOH. The holding potential was typically −60 mV. The sample size was determined to be eight viable cells to calculate the mean inhibition of the derivative of interest. The solution exchange time (10–90% to peak) was estimated at […] using open-tip control at the end of a recording. Inhibition was calculated by comparing the current observed when the cell was supplied with glutamate alone and when the same cell was supplied with both glutamate and the 2,3-BDZ compounds. The initial tube containing only glutamate was reintroduced to the cell to ensure cellular safety and authenticate the antagonist’s findings. This step ensured that the glutamate-induced current observed before the administration of the antagonist was nearly indistinguishable from the current observed after administration.
(§3) The experiment served two purposes: first, determining the whole-cell current amplitude ratio in the absence and presence of the compounds (A/AI) to derive a constant inhibitory value independent of the rate measurement. Second, as an independent control method, a fast exchange solution flow methodology was employed using piezoelectric actuators, providing the fastest exchange solution with open-tip current rise times in the 100–300 μs range to assess the amplitude of the whole-cell current. Detailed data analysis of this process is provided in the supporting information (Tables S1–S4).
(§4) The data acquired were analyzed using Igor Pro7 (Wave Metrics, Inc., Portland, OR, USA). Receptor desensitization (τw des) and deactivation rates were estimated by fitting the current decay starting from 95% of the peak to the baseline current using a double exponential formulation. […]

AMPA receptor subunits = experiment: Whole-cell patch-clamp recording, statements over all tested AMPAR subunits (GluA1, GluA1/2, GluA2, GluA2/3) in HEK293T cells; conditions: 16 µM compound; for Effect on deactivation rate of the AMPAR subunits examined: 1 ms glutamate
Procedure: as §1, §2, §3, §4

GluA1 = molecular target: T2, GluA1 (Rattus norvegicus, UniProt P19490); experiment: Whole-cell patch-clamp recording of homomeric GluA1 AMPAR expressed in HEK293T cells; conditions: for Amplitude with compound: 10 mM glutamate + 16 µM compound, mean±SEM; for Amplitude with compound / A/AI (current amplitude ratio without/with compound) / t deact (weighted deactivation time constant) / t des (weighted desensitization time constant) / Amplitude, applying glutamate alone after compound: n=8; for A/AI (current amplitude ratio without/with compound): 10 mM glutamate, 16 µM compound; for t deact (weighted deactivation time constant): 1 ms 10 mM glutamate + 16 µM compound; for t des (weighted desensitization time constant): 500 ms 10 mM glutamate + 16 µM compound; for Amplitude, applying glutamate alone after compound: washout/recovery
T2 construct: expressed in transfected cells; host or cells: HEK293T
T2 sequence (P19490 19-907 isoform P19490-2 limits assumed): as the sequence (P19490 19-907 isoform P19490-2 limits assumed) above
Procedure: as §1, §2, §3, §4

GluA2/3 = molecular target: T3, GluA2/3 (Rattus norvegicus, UniProt P19491+P19492); experiment: Whole-cell patch-clamp recording of heteromeric GluA2/3 AMPAR expressed in HEK293T cells; conditions: for Amplitude with compound: 10 mM glutamate + 16 µM compound, mean±SEM; for Amplitude with compound / A/AI (current amplitude ratio without/with compound) / t deact (weighted deactivation time constant) / t des (weighted desensitization time constant) / Amplitude, applying glutamate alone after compound: n=8; for A/AI (current amplitude ratio without/with compound): 10 mM glutamate, 16 µM compound; for t deact (weighted deactivation time constant): 1 ms 10 mM glutamate + 16 µM compound; for t des (weighted desensitization time constant): 500 ms 10 mM glutamate + 16 µM compound; for Amplitude, applying glutamate alone after compound: washout/recovery
T3 construct: expressed in transfected cells; host or cells: HEK293T
T3 sequence (P19491 22-883 isoform P19491-2 limits assumed): as the sequence (P19491 22-883 isoform P19491-2 limits assumed) above
T3 sequence (P19492 23-888 isoform P19492-2 limits assumed): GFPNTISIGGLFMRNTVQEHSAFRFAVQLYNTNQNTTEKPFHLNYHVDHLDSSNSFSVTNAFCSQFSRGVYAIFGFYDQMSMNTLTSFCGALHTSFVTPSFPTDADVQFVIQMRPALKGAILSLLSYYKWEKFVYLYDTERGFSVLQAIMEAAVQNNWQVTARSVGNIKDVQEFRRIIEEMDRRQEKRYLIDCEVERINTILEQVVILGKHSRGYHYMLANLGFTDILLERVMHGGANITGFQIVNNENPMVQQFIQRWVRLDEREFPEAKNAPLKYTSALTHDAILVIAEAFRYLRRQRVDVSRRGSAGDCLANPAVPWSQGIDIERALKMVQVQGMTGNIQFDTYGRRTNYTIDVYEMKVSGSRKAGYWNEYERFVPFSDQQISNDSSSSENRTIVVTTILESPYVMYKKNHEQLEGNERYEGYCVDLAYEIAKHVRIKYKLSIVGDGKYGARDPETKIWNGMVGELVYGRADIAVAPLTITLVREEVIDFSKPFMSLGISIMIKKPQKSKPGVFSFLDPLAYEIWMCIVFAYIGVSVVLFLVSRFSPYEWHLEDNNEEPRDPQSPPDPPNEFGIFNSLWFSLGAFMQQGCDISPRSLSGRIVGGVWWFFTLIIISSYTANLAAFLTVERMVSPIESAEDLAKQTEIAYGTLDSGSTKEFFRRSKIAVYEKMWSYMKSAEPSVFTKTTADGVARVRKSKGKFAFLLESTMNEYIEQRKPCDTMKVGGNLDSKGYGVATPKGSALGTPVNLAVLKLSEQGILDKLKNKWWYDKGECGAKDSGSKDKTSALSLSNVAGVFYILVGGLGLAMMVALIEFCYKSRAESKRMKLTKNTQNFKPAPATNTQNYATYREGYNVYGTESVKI
Procedure: as §1, §2, §3, §4

GluA2 = molecular target: T4, GluA2 (Rattus norvegicus, UniProt P19491); experiment: Whole-cell patch-clamp recording of homomeric GluA2 AMPAR expressed in HEK293T cells; conditions: for Amplitude with compound: 10 mM glutamate + 16 µM compound, mean±SEM; for Amplitude with compound / A/AI (current amplitude ratio without/with compound) / t deact (weighted deactivation time constant) / t des (weighted desensitization time constant) / Amplitude, applying glutamate alone after compound: n=8; for A/AI (current amplitude ratio without/with compound): 10 mM glutamate, 16 µM compound; for t deact (weighted deactivation time constant): 1 ms 10 mM glutamate + 16 µM compound; for t des (weighted desensitization time constant): 500 ms 10 mM glutamate + 16 µM compound; for Amplitude, applying glutamate alone after compound: washout/recovery
T4 construct: expressed in transfected cells; host or cells: HEK293T
T4 sequence (P19491 22-883 isoform P19491-2 limits assumed): as the sequence (P19491 22-883 isoform P19491-2 limits assumed) above
Procedure: as §1, §2, §3, §4

[1] = log of IC50, read-out: Log IC50 (converted)
[2] = normalized peak current, -60 mV, pH 7.4, 22 °C, read-out: IC50

Row | Amplitude with compound (GluA1/2; -60 mV, pH 7.4, 22 °C) [pA] | A/AI (current amplitude ratio without/with compound) (GluA1/2) | t deact (weighted deactivation time constant) (GluA1/2) [ms] | IC50 (GluA1/2; [1]) [µM] | IC50 (GluA1/2; [2]) [µM] | Amplitude, applying glutamate alone after compound (GluA1/2) [pA] | Amplitude with compound (GluA1; -60 mV, pH 7.4, 22 °C) [pA] | A/AI (current amplitude ratio without/with compound) (GluA1) | t deact (weighted deactivation time constant) (GluA1) [ms] | IC50 (GluA1; [1]) [µM] | IC50 (GluA1; [2]) [µM] | Amplitude, applying glutamate alone after compound (GluA1) [pA] | Amplitude with compound (GluA2/3; -60 mV, pH 7.4, 22 °C) [pA] | A/AI (current amplitude ratio without/with compound) (GluA2/3) | t deact (weighted deactivation time constant) (GluA2/3) [ms] | Compound | t des (weighted desensitization time constant) (GluA1/2) [ms] | Reduction in AMPAR subunit currents (AMPA receptor subunits) | Effect on deactivation rate of the AMPAR subunits examined (AMPA receptor subunits) | t des (weighted desensitization time constant) (GluA1) [ms] | t des (weighted desensitization time constant) (GluA2/3) [ms] | also measured
1 | 53±3.0 | 9.91±0.6 | 3.9 ± 0.4 | 3.39 | 3.43 | 523±33 | 93±10.0 | 9.82±0.7 | 3.6 ± 0.3 | 3.47 | 3.51 | 914±40 | 52±7.0 | 10.28±0.6 | 4.8 ± 0.5 | COc1cc(N)ccc1C1=NNC(=O)Cc2cc3c(cc21)OCO3 [2,3-BDZ-2, 1-(2-Methoxy-4-aminophenyl)-7,8-(methylenedioxy)-3,5-dihydro-4H-2,3-benzodiazepin-4-one] | 3.8 ± 0.3 | approximately 10 fold | nearly doubles | 1.8 ± 0.1 | 1.7 ± 0.08 | Reduction in the desensitization rate of the investigated subunits (AMPA receptor subunits; 500 ms glutamate): 1–2 fold; IC50 (GluA2/3; [1]): 3.47 µM; IC50 (GluA2/3; [2]): 3.45 µM; Amplitude, applying glutamate alone after compound (GluA2/3): 532±26 pA; Amplitude with compound (GluA2; -60 mV, pH 7.4, 22 °C): 127±12.0 pA; A/AI (current amplitude ratio without/with compound) (GluA2): 10.42±0.8; t deact (weighted deactivation time constant) (GluA2): 5.1 ± 0.4 ms; t des (weighted desensitization time constant) (GluA2): 1.6 ± 0.05 ms; IC50 (GluA2; [1]): 3.39 µM; IC50 (GluA2; [2]): 3.36 µM; Amplitude, applying glutamate alone after compound (GluA2): 1310±42 pA
2 | 170±9 | 3.44±0.2 | 2.7 ± 0.2 | 6.76 | 6.69 | 583±40 | 277±14 | 3.41±0.2 | 2.3 ± 0.1 | 6.76 | 6.8 | 942±44 | 146±14 | 3.56±0.3 | 2.8 ± 0.2 | COc1cc([N+](=O)[O-])ccc1C1=NNC(=O)Cc2cc3c(cc21)OCO3 [2,3-BDZ-4, 1-(2-Methoxy-4-nitrophenyl)-7,8-(methylenedioxy)-3,5-dihydro-4H-2,3-benzodiazepin-4-one] | 5.0 ± 0.3 | 3 fold | no change | 2.2 ± 0.1 | 2.6 ± 0.2 | Effect on desensitization rate (AMPA receptor subunits): no change; IC50 (GluA2/3; [1]): 6.76 µM; IC50 (GluA2/3; [2]): 6.69 µM; Amplitude, applying glutamate alone after compound (GluA2/3): 516±23 pA; Amplitude with compound (GluA2; -60 mV, pH 7.4, 22 °C): 364±17 pA; A/AI (current amplitude ratio without/with compound) (GluA2): 3.68±0.1; t deact (weighted deactivation time constant) (GluA2): 2.7 ± 0.1 ms; t des (weighted desensitization time constant) (GluA2): 2.5 ± 0.1 ms; IC50 (GluA2; [1]): 6.76 µM; IC50 (GluA2; [2]): 6.75 µM; Amplitude, applying glutamate alone after compound (GluA2): 1340±52 pA
